How the values were obtained:
Format in all cases: cell-based, mouse
[1] = test system: NIH3T3 cells overexpressing JNK-DN; test: MTT cell viability, JNK-DN overexpressing cells vs parental line; conditions: JNK-DN high-expressing cells / parental cell line, 3 to 4 days
How it was run: (§1)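 Stable NIH3T3 transfectants (cDNA in pRc-CMV-type vector, G-418-selected, high expressers picked by Western blot) and parental cells were seeded at 1×10^5 cells/ml into twofold serial drug dilutions and grown 3–4 days. MTT formazan was read at 574/655 nm, and log ratios of IC40 values were derived.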

[2] = test system: NIH3T3 cells, TPA (PKC downreg); test: MTT cell viability, TPA (PKC downreg) cells vs parental line; conditions: 3 to 4 days
[3] = test system: NIH3T3 cells overexpressing DAN; test: MTT cell viability, DAN overexpressing cells vs parental line; conditions: DAN high-expressing cells / parental cell line, 3 to 4 days
How it was run: as §1

[4] = test system: NIH3T3 cells overexpressing PDGF-R; test: MTT cell viability, PDGF-R overexpressing cells vs parental line; conditions: PDGF-R high-expressing cells / parental cell line, 3 to 4 days
How it was run: as §1

[5] = test system: NIH3T3 cells overexpressing ERK-DN; test: MTT cell viability, ERK-DN overexpressing cells vs parental line; conditions: ERK-DN high-expressing cells / parental cell line, 3 to 4 days
How it was run: (§2)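 Sensitivity is expressed as the logarithm of the ratio of IC40 values between gene-overexpressing and parental NIH3T3 cells. IC40 comes from an MTT assay after 3–4 days of drug exposure, with absorbance read at 574 nm against 655 nm. Untreated wells served as 100% and cell-free wells as 0% controls.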

[6] = test system: NIH3T3 cells overexpressing cAMP-PK-CS; test: MTT cell viability, cAMP-PK-CS overexpressing cells vs parental line; conditions: cAMP-PK-CS high-expressing cells / parental cell line, 3 to 4 days
How it was run: as §2

[7] = test system: NIH3T3 cells overexpressing HSP9O; test: MTT cell viability, HSP9O overexpressing cells vs parental line; conditions: HSP9O high-expressing cells / parental cell line, 3 to 4 days
How it was run: as §1

[8] = test system: NIH3T3 cells overexpressing Gluco-corticoid-R; test: MTT cell viability, Gluco-corticoid-R overexpressing cells vs parental line; conditions: Gluco-corticoid-R high-expressing cells / parental cell line, 3 to 4 days
How it was run: as §2

[9] = test system: NIH3T3 cells overexpressing erbB2; test: MTT cell viability, erbB2 overexpressing cells vs parental line; conditions: erbB2 high-expressing cells / parental cell line, 3 to 4 days
How it was run: as §1

[10] = test system: NIH3T3 cells overexpressing caspase-3; test: MTT cell viability, caspase-3 overexpressing cells vs parental line; conditions: caspase-3 high-expressing cells / parental cell line, 3 to 4 days
How it was run: as §2

[11] = test system: NIH3T3 cells overexpressing HSP4O; test: MTT cell viability, HSP4O overexpressing cells vs parental line; conditions: HSP4O high-expressing cells / parental cell line, 3 to 4 days
How it was run: as §1

[12] = test system: NIH3T3 cells overexpressing RhoA; test: MTT cell viability, RhoA overexpressing cells vs parental line; conditions: RhoA high-expressing cells / parental cell line, 3 to 4 days
How it was run: as §1

[13] = test system: NIH3T3 cells overexpressing CaMKIIa; test: MTT cell viability, CaMKIIa overexpressing cells vs parental line; conditions: CaMKIIa high-expressing cells / parental cell line, 3 to 4 days
How it was run: as §2

[14] = test system: NIH3T3 cells overexpressing CP-antisense; test: MTT cell viability, CP-antisense cells vs parental line; conditions: 3 to 4 days
How it was run: as §1

[15] = test system: NIH3T3 cells overexpressing v-src; test: MTT cell viability, v-src overexpressing cells vs parental line; conditions: v-src high-expressing cells / parental cell line, 3 to 4 days
How it was run: as §1

[16] = test system: NIH3T3 cells overexpressing PKCalpha-KN; test: MTT cell viability, PKCalpha-KN overexpressing cells vs parental line; conditions: 3 to 4 days
How it was run: as §2

[17] = test system: NIH3T3 cells overexpressing p16/INK4A; test: MTT cell viability, p16/INK4A overexpressing cells vs parental line; conditions: p16/INK4A high-expressing cells / parental cell line, 3 to 4 days
How it was run: as §1

[18] = test system: NIH3T3 cells overexpressing Regucalcin; test: MTT cell viability, Regucalcin overexpressing cells vs parental line; conditions: Regucalcin high-expressing cells / parental cell line, 3 to 4 days
How it was run: as §1

[19] = test system: NIH3T3 cells overexpressing Ha-ras; test: MTT cell viability, drug sensitivity of Ha-ras overexpressing cells vs parental line; conditions: Ha-ras high-expressing cells / parental cell line, 3 to 4 days
How it was run: as §2

[20] = test system: NIH3T3 cells overexpressing m-calpain; test: MTT cell viability, m-calpain overexpressing cells vs parental line; conditions: m-calpain high-expressing cells / parental cell line, 3 to 4 days
How it was run: as §2

[21] = PKCalpha-KN (first of two lines) high-expressing cells / parental cell line
[22] = PKCalpha-KN (second of two lines) high-expressing cells / parental cell line

C=C[C@@]1(C)CC(=O)[C@]2(O)[C@@]3(C)[C@@H](O)CCC(C)(C)[C@@H]3[C@H](O)[C@H](OC(C)=O)[C@@]2(C)O1 [Forskolin, forskolin]
logarithmic value of ratio of IC40 values [1]: −0.22 | logarithmic value of ratio of IC40 values [2]: −0.17 | logarithmic value of ratio of IC40 values [3]: 0.88 | logarithmic value of ratio of IC40 values [4]: 0.16 | logarithmic value of ratio of IC40 values [5]: 0.08 | logarithmic value of ratio of IC40 values [6]: 0.51 | logarithmic value of ratio of IC40 values [7]: 0.94 | logarithmic value of ratio of IC40 values [8]: 0.33 | logarithmic value of ratio of IC40 values [9]: 0.28 | logarithmic value of ratio of IC40 values [10]: 1.12 | logarithmic value of ratio of IC40 values [11]: −0.39 | logarithmic value of ratio of IC40 values [12]: 0.47 | logarithmic value of ratio of IC40 values [13]: 0.00 | logarithmic value of ratio of IC40 values [14]: −0.05 | logarithmic value of ratio of IC40 values [15]: −0.46 | logarithmic value of ratio of IC40 values [16, 21]: −0.47 | logarithmic value of ratio of IC40 values [16, 22]: 0.00 | logarithmic value of ratio of IC40 values [17]: 0.70 | logarithmic value of ratio of IC40 values [18]: −0.10 | logarithmic value of ratio of IC40 values [19]: 0.26 | logarithmic value of ratio of IC40 values [20]: 0.25

O=c1c(-c2ccc(O)cc2)coc2cc(O)cc(O)c12 [Genistein, genistein]
logarithmic value of ratio of IC40 values [1]: −0.10 | logarithmic value of ratio of IC40 values [2]: −0.09 | logarithmic value of ratio of IC40 values [3]: 0.20 | logarithmic value of ratio of IC40 values [4]: 0.32 | logarithmic value of ratio of IC40 values [5]: 0.00 | logarithmic value of ratio of IC40 values [6]: 0.00 | logarithmic value of ratio of IC40 values [7]: 0.41 | logarithmic value of ratio of IC40 values [8]: 0.02 | logarithmic value of ratio of IC40 values [9]: −0.60 | logarithmic value of ratio of IC40 values [10]: 0.04 | logarithmic value of ratio of IC40 values [11]: 0.00 | logarithmic value of ratio of IC40 values [12]: 0.31 | logarithmic value of ratio of IC40 values [13]: −0.15 | logarithmic value of ratio of IC40 values [14]: 0.00 | logarithmic value of ratio of IC40 values [15]: −0.60 | logarithmic value of ratio of IC40 values [16, 21]: 0.16 | logarithmic value of ratio of IC40 values [16, 22]: 0.24 | logarithmic value of ratio of IC40 values [17]: 0.40 | logarithmic value of ratio of IC40 values [18]: 0.00 | logarithmic value of ratio of IC40 values [19]: −0.35 | logarithmic value of ratio of IC40 values [20]: 0.18
